Experimental data as given in patent US12310364B2, “Safened compositions comprising pyridine carboxylate herbicides and cloquintocet” (Corteva Agriscience LLC, priority 2018, dated 2025).

How the values were obtained:
Type in all cases: in vivo
[1] = test system: Triticum aestivum (spring wheat), TRZAS; experiment: Greenhouse postemergence safening trial, visual injury on spring wheat
Description: (§1) Greenhouse Trial Methodology-Evaluation of Postemergence Herbicidal […] in Crops […] When required to ensure good germination and healthy plants, a fungicide treatment and/or other chemical or physical treatment was applied. The plants were grown for 7-36 days (d) in a greenhouse with an approximate 14-hour (h) photoperiod which was maintained at about 23° C. during the day and 22° C. during the night. Nutrients and water were added on a regular basis and supplemental lighting was provided with overhead metal halide 1000-Watt lamps as necessary. The plants were employed for testing when they reached the second or third true leaf stage. Emulsifiable concentrates of each of each pyridine carboxylate herbicide (Compound A or Compound B) were prepared at 100 grams acid equivalent per liter (g ae/L). […] The concentrated stock solutions were further diluted with an aqueous mixture of 1.25% […] or MSO® Concentrate with LECI-TECH® to obtain stock solutions at reduced application rates for each herbicide. Spray solutions of the herbicide combinations (Compound A or Compound B plus safener) were prepared by adding weighed amounts or aliquots of the safener to the stock solutions of Compound A or Compound B to form 12-mL spray solutions in two-way combinations. […] Control plants were sprayed in the same manner with the solvent blank. All herbicide (component a) application rates are given as “g ae/ha” and all safener (component b) application rates are given as “g ai/ha.” The treated plants and control plants were placed in a greenhouse as described above and watered by sub-irrigation to prevent wash-off of the test compounds.

[2] = test system: Triticum aestivum (winter wheat), TRZAW; experiment: Greenhouse postemergence safening trial, visual injury on winter wheat; conditions: safener alone 40 g/ha
Description: as §1

[3] = test system: Triticum aestivum (durum wheat), TRZDU; experiment: Greenhouse postemergence safening trial, visual injury on durum wheat; conditions: safener alone 40 g/ha
Description: as §1

[4] = test system: Hordeum vulgare (spring barley), HORVS; experiment: Greenhouse postemergence safening trial, visual injury on spring barley
Description: as §1

[5] = test system: Hordeum vulgare (winter barley), HORVW; experiment: Greenhouse postemergence safening trial, visual injury on winter barley; conditions: safener alone 40 g/ha
Description: as §1

[6] = test system: Avena sativa (common oat), AVESA; experiment: Greenhouse postemergence safening trial, visual injury on common oat; conditions: safener alone 40 g/ha
Description: as §1

[7] = test system: Brassica napus (winter rape), BRSNW; experiment: Greenhouse postemergence trial, visual injury on winter rape
Description: as §1

[8] = test system: Matricaria chamomilla (wild chamomile), MATCH; experiment: Greenhouse postemergence trial, visual injury on wild chamomile
Description: as §1

[9] = test system: Salsola kali (Russian thistle), SASKR; experiment: Greenhouse postemergence trial, visual injury on Russian thistle
Description: as §1

CNC.O=C(O)COc1ccc(Cl)c2cccnc12 [CQC-DMA, cloquintocet-dimethylammonium salt]
0%: % visual injury, Ob ([1]; safener alone 10 g/ha) | % visual injury, Ob ([1]; safener alone 20 g/ha) | % visual injury, Ob ([1]; safener alone 40 g/ha) | % visual injury Δ [2] | % visual injury, Ob [2] | % visual injury, Ob [3] | % visual injury, Ob ([4]; safener alone 10 g/ha) | % visual injury, Ob ([4]; safener alone 20 g/ha) | % visual injury, Ob ([4]; safener alone 40 g/ha) | % visual injury, Ob [5] | % visual injury, Ob [6] | % visual injury, Ob ([7]; safener alone 10 g/ha) | % visual injury, Ob ([7]; safener alone 20 g/ha) | % visual injury, Ob ([7]; safener alone 40 g/ha) | % visual injury, Ob ([8]; safener alone 10 g/ha) | % visual injury, Ob ([8]; safener alone 20 g/ha) | % visual injury, Ob ([8]; safener alone 40 g/ha) | % visual injury, Ob ([9]; safener alone 10 g/ha) | % visual injury, Ob ([9]; safener alone 20 g/ha) | % visual injury, Ob ([9]; safener alone 40 g/ha)

CCN(CC)CC.O=C(O)COc1ccc(Cl)c2cccnc12 [CQC-TEA, cloquintocet-triethylamine salt]
0%: % visual injury, Ob ([1]; safener alone 10 g/ha) | % visual injury, Ob ([1]; safener alone 20 g/ha) | % visual injury, Ob ([1]; safener alone 40 g/ha) | % visual injury, Ob [2] | % visual injury, Ob [3] | % visual injury, Ob ([4]; safener alone 10 g/ha) | % visual injury, Ob ([4]; safener alone 20 g/ha) | % visual injury, Ob ([4]; safener alone 40 g/ha) | % visual injury Δ [5] | % visual injury, Ob [5] | % visual injury, Ob [6] | % visual injury, Ob ([7]; safener alone 10 g/ha) | % visual injury, Ob ([7]; safener alone 20 g/ha) | % visual injury, Ob ([7]; safener alone 40 g/ha) | % visual injury, Ob ([8]; safener alone 10 g/ha) | % visual injury, Ob ([8]; safener alone 20 g/ha) | % visual injury, Ob ([8]; safener alone 40 g/ha) | % visual injury, Ob ([9]; safener alone 10 g/ha) | % visual injury, Ob ([9]; safener alone 20 g/ha) | % visual injury, Ob ([9]; safener alone 40 g/ha)

CC(O)CN(CC(C)O)CC(C)O.O=C(O)COc1ccc(Cl)c2cccnc12 [CQC-TIPA, cloquintocet-triisopropanolamine salt]
0%: % visual injury, Ob ([1]; safener alone 10 g/ha) | % visual injury, Ob ([1]; safener alone 20 g/ha) | % visual injury, Ob ([1]; safener alone 40 g/ha) | % visual injury, Ob ([4]; safener alone 10 g/ha) | % visual injury, Ob ([4]; safener alone 20 g/ha) | % visual injury, Ob ([4]; safener alone 40 g/ha) | % visual injury, Ob ([7]; safener alone 10 g/ha) | % visual injury, Ob ([7]; safener alone 20 g/ha) | % visual injury, Ob ([7]; safener alone 40 g/ha) | % visual injury, Ob ([8]; safener alone 10 g/ha) | % visual injury, Ob ([8]; safener alone 20 g/ha) | % visual injury, Ob ([8]; safener alone 40 g/ha) | % visual injury, Ob ([9]; safener alone 10 g/ha) | % visual injury, Ob ([9]; safener alone 20 g/ha) | % visual injury, Ob ([9]; safener alone 40 g/ha)

COC(=O)COc1ccc(Cl)c2cccnc12 [CQC-methyl, cloquintocet-methyl]
0%: % visual injury, Ob ([1]; safener alone 10 g/ha) | % visual injury, Ob ([1]; safener alone 20 g/ha) | % visual injury, Ob ([1]; safener alone 40 g/ha) | % visual injury, Ob ([4]; safener alone 10 g/ha) | % visual injury, Ob ([4]; safener alone 20 g/ha) | % visual injury, Ob ([4]; safener alone 40 g/ha) | % visual injury, Ob ([7]; safener alone 10 g/ha) | % visual injury, Ob ([7]; safener alone 20 g/ha) | % visual injury, Ob ([7]; safener alone 40 g/ha) | % visual injury, Ob ([8]; safener alone 10 g/ha) | % visual injury, Ob ([8]; safener alone 20 g/ha) | % visual injury, Ob ([8]; safener alone 40 g/ha) | % visual injury, Ob ([9]; safener alone 10 g/ha) | % visual injury, Ob ([9]; safener alone 20 g/ha) | % visual injury, Ob ([9]; safener alone 40 g/ha)
